# Experimental data from patent US20100210564A1, “DRUG OR FOOD CONTAINING A PEPTIDE” (Kyoto University, priority 2009, published 2010).
# “Also recorded” adds a separate entry of the source.
# Key:
# mice [1] = test: Elevated plus-maze test, YL in combination with antagonists for various receptors; type: in vivo, mouse; conditions: in words
# Source text: (§1) The elevated plus-maze (EPM) consisted of two open arms (25×5 cm) and two closed arms (25×5×15 cm), which were joined to a central platform 50 cm high above the floor (see FIG. 1). Because the closed arms were surrounded by fences, a mouse could safely walk in the closed arms irrespective of their elevated position. On the other hand, because the open arms were not surrounded by fences, a mouse walking along the open arms would feel anxious that it might fall down from the elevated position. Therefore, the more time the mouse spent in the open arms, or the greater the number of entries to the open arms, the less anxious the mouse was feeling; thus, the anxiolytic activity was determined based on these indices.
# (§2) A mouse was placed on a portion of the central platform facing one of the open arms, and the test was started. During a test time of 5 minutes, the cumulative time spent in the open arms (abbr.: time in open arms), the number of visits to the open arms (abbr.: visit to open arms), and the total number of visits to any of the arms (abbr.: total visits) were recorded. The percentage of the time spent in the open arms and the percentage of the number of visits to the open arms were calculated as indices of anxiety.
# mice [2] = test: Elevated plus-maze test, anxiolytic effects; type: in vivo, mouse; conditions: for Minimum Effective Dose (mg/kg, i.p.): elevated plus-maze, ( ) = showed tendency, — = no anxiolytic effects
# Procedure: In the present invention, the anxiolytic effects can be evaluated by the elevated plus-maze test, developed and widely used as a method for evaluating anxiety-related behaviors to screen anxiolytic drugs (FIG. 1). Specifically, the test is performed as follows: a candidate substance for an anxiolytic drug is orally or intraperitoneally administered to a mouse; 30 minutes after the administration, the mouse is placed in an elevated plus-maze; and the potency of the anxiolytic effects is evaluated based on the number of entries to the open arms and a change in the times spent on the open arms.
# as §1, §2
# The data obtained from the elevated plus-maze test were represented as the means±SEM. The data were analyzed by 1-way or 2-way ANOVA, followed by the Fisher test for multiple comparisons.
# (§3) Each of YL (Example 1 and Comparative Example 3), FL (Example 2), YI (Example 3), FI (Example 4), LY (Example 5), LF (Example 6), IY (Example 7), IF (Example 8), YLY (Example 9), YLQ (Example 10), LYL (Example 11), YLYEIAR (Example 12), YV (Example 13), WL (Example 14), LW (Example 15), HL (Example 16), Y (Comparative Example 1), and Y, L (Comparative Example 2) dissolved in physiological saline was administered intraperitoneally (i.p.) or orally (p.o.) to mice (n=3 to 14) in the amounts shown in each figure before the mice were placed in the elevated plus-maze. The percentage of the time spent in the open arms, the percentage of the number of visits to the open arms, and the total number of visits to the arms (total visits) were compared among groups administered each peptide or amino acid, and a control group (0 mg/kg). YL was investigated for its anxiolytic effects by the open-field test. The results are shown in FIGS. 2 to 14, FIGS. 22 to 27, and Table 3.
# mice [3] = test: Open-field test; type: in vivo, mouse
# Procedure: The open-field used in this experiment was a cylindrical gray apparatus with a diameter of 60 cm and a height of 50 cm, which is divided into 25 sections with black lines. […] However, once a mouse is administered an anxiolytic drug, the time spent in the circle at the center and the number of entries thereto increase.
# as §3
# ACE = ACE (Homo sapiens, UniProt P12821); test: ACE inhibitory effects; type: biochemical; conditions: comparison of YL with IY
# [4] = 0.1 mg/kg, i.p., mean ± SEM (n = 6), p < 0.05 vs cont.
# ACE, sequence (P12821 30-1306, species assumed): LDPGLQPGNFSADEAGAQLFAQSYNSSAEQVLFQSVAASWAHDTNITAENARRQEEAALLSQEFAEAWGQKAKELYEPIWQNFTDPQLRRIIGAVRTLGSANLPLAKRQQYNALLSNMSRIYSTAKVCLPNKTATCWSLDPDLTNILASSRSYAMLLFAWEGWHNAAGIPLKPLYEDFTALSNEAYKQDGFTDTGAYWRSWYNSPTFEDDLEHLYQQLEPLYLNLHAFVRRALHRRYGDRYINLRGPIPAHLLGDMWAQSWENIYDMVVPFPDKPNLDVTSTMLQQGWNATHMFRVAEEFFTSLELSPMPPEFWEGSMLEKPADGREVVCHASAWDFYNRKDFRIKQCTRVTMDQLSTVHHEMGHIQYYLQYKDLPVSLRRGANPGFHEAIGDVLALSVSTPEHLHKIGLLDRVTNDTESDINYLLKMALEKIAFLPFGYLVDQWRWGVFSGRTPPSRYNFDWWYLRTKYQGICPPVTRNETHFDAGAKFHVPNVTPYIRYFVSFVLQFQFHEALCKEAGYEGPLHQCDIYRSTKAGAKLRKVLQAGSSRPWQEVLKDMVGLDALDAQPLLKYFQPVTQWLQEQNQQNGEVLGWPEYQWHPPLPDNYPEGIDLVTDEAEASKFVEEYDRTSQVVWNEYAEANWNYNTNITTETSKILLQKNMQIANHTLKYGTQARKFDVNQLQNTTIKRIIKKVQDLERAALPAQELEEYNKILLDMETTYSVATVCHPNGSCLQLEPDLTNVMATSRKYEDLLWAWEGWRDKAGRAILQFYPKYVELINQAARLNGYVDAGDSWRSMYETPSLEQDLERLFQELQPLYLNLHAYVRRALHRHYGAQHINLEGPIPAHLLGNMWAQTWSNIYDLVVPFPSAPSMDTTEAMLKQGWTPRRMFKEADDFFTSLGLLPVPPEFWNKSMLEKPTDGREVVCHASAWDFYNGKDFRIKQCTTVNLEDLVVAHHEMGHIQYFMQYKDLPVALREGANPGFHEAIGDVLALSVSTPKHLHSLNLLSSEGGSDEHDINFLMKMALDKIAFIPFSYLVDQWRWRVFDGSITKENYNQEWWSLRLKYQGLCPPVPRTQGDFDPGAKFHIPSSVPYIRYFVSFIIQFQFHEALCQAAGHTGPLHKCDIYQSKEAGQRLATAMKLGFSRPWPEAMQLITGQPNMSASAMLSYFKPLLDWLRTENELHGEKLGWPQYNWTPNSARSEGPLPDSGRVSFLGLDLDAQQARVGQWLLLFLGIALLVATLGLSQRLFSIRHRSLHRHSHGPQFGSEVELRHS
compound,measurement,setting,value
OC(CCCN1CCN(c2ncc(F)cn2)CC1)c1ccc(F)cc1 (stereo not shown) [BMY14802],effect of the antagonist/inhibitor on the anxiolytic effects of the peptides of the invention,mice [1],not blocked
"CC(C)C[C@H](N)C(=O)O [L, Leu, reference compound]",anxiolytic effects in the elevated plus-maze experiment (in words),mice [2],no anxiolytic effects
COc1ccccc1N1CCN(CC(C(=O)NC(C)(C)C)c2ccccc2)CC1 (stereo not shown) [WAY100135],effect of the antagonist/inhibitor on the anxiolytic effects of the peptides of the invention,mice [1],blocked
"N[C@@H](Cc1ccc(O)cc1)C(=O)O [Y, Tyr, reference compound]",anxiolytic effects in the elevated plus-maze experiment (in words),mice [2],no anxiolytic effects
CCOC(=O)c1ncn2c1CN(C)C(=O)c1cc(F)ccc1-2 [flumazenil],effect of the antagonist/inhibitor on the anxiolytic effects of the peptides of the invention,mice [1],significantly blocked
COc1ccc2c(c1)c(CC(=O)O)c(C)n2C(=O)c1ccc(Cl)cc1 [indomethacin],effect of the antagonist/inhibitor on the anxiolytic effects of the peptides of the invention,mice [1],not blocked
C=CCN1CC[C@]23c4c5ccc(O)c4O[C@H]2C(=O)CC[C@@]3(O)[C@H]1C5 [naloxone],effect of the antagonist/inhibitor on the anxiolytic effects of the peptides of the invention,mice [1],not blocked
Oc1ccc2c3c1O[C@H]1c4[nH]c5ccccc5c4C[C@@]4(O)[C@@H](C2)N(CC2CC2)CC[C@]314 [naltrindole],effect of the antagonist/inhibitor on the anxiolytic effects of the peptides of the invention,mice [1],not blocked
His-Leu [HL],"Minimum Effective Dose (mg/kg, i.p.)",mice [2],0.1 mg/kg
Ile-Tyr [IY],"Minimum Effective Dose (mg/kg, i.p.)",mice [2],10 mg/kg
Phe-Leu [FL],"Minimum Effective Dose (mg/kg, i.p.)",mice [2],0.1 mg/kg
Trp-Leu [WL],"Minimum Effective Dose (mg/kg, i.p.)",mice [2],0.1 mg/kg
Tyr-Leu [YL],Time in Center Circle (%),mice [3]; [4],2.06 ± 0.234 %
same,Visits to Center Circle (%),mice [3]; [4],3.02 ± 0.404 %
same,efficacy in the open-field test (in words),mice [3]; mice,demonstrated its efficacy
same,anxiolytic effects in the elevated plus-maze experiment (in words),mice [2],stronger anxiolytic effects; also recorded: at least equivalent to those of diazepam
same,"Minimum Effective Dose (mg/kg, i.p.)",mice [2],0.1 mg/kg
same,ACE inhibitory effects,ACE,weaker than those of IY
"YLYEIAR [peptide; Y Tyr, L Leu, E Glu, I Ile, A Ala, R Arg]","Minimum Effective Dose (mg/kg, i.p.)",mice [2],0.3 mg/kg
